{"source": "patent US20080300231A1", "about": "“Antibacterial amide macrocycles VI” (priority 2005, published 2008)", "key": {"S. aureus RN4220": {"tested_on": "S. aureus RN4220", "experiment": "Resistance rate of S. aureus RN4220 on biphenomycin B agar plate", "type": "cell-based", "details": "agar plate containing 2 μg/ml biphenomycin B (10×MIC), 37° C. overnight", "experimental": "The S. aureus strain RN4220Bi^R is isolated in vitro. […] Whereas about 1×10^7 cells grow on the antibiotic-free plate, about 100 colonies grow on the antibiotic-containing plate, corresponding to a resistance rate of 1×10^5. Some of the colonies grown on the antibiotic-containing plate are tested for the biphenomycin B MIC. One colony with a MIC of >50 μM is selected for further use, and the strain is referred to as RN4220Bi^R."}, "S. aureus 133": {"tested_on": "S. aureus 133", "experiment": "Minimum inhibitory concentration (MIC), S. aureus 133", "type": "cell-based", "details": "S. aureus 133", "experimental": "Determination of the Minimum Inhibitory Concentration (MIC)\nThe minimum inhibitory concentration (MIC) is the minimum concentration of an antibiotic with which the growth of a test microbe is inhibited over 18-24 h. The inhibitor concentration can in these cases be determined by standard microbiological methods (see, for example, The National Committee for Clinical Laboratory Standards. Methods for dilution antimicrobial susceptibility tests for bacteria that grow aerobically; approved standard-fifth edition. NCCLS document M7-A5 [ISBN 1-56238-394-9]. NCCLS, 940 West Valley Road, Suite 1400, Wayne, Pa. 19087-1898 USA, 2000). The MIC of the compounds of the invention is determined in the liquid dilution test on the 96-well microtitre plate scale. The bacterial microbes are cultivated in a minimal medium (18.5 mM Na2HPO4, 5.7 mM KH2PO4, 9.3 mM NH4Cl, 2.8 mM MgSO4, 17.1 mM NaCl, 0.033 μg/ml of thiamine hydrochloride, 1.2 μg/ml of nicotinic acid, 0.003 μg/ml of biotin, 1% glucose, 25 μg/ml of each proteinogenic amino acid with the exception of phenylalanine; [H.-P. Kroll; unpublished]) with addition of 0.4% BH broth (test medium). In the case of Enterococcus faecium L4001, heat-inactivated fetal calf serum (FCS; GibcoBRL, Germany) is added to the test medium in a final concentration of 10%. Overnight cultures of the test microbes are diluted to an OD578 of 0.001 (to 0.01 in the case of enterococci) in fresh test medium, and incubated 1:1 with dilutions of the test substances (1:2 dilution steps) in test medium (200 μl final volume). The cultures are incubated at 37° C. for 18-24 hours; enterococci in the presence of 5% CO2\nThe lowest substance concentration in each case at which no visible bacterial growth occurs any more is defined as the MIC.\nAlternative Method for Determining the Minimum Inhibitory Concentration (MIC)\nThe minimum inhibitory concentration (MIC) is the minimum concentration of an antibiotic with which the growth of a test microbe is inhibited over 18-24 h. The inhibitor concentration can in these cases be determined by standard microbiological methods with modified medium in an agar dilution test (see, for example, The National Committee for Clinical Laboratory Standards. Methods for dilution antimicrobial susceptibility tests for bacteria that grow aerobically; approved standard-fifth edition. NCCLS document M7-A5 [ISBN 1-56238-394-9]. NCCLS, 940 West Valley Road, Suite 1400, Wayne, Pa. 19087-1898 USA, 2000). The bacterial microbes are cultivated on 1.5% agar plates which contain 20% defibrinated horse blood. The test microbes, which are incubated overnight on Columbia blood agar plates (Becton-Dickinson), are diluted in PBS, adjusted to a microbe count of about 5×10^5 microbes/ml and placed dropwise (1-3 μl) on test plates. The test substances comprise different dilutions of the test substances (1:2 dilution steps). The cultures are incubated at 37° C. in the presence of 5% CO2 for 18-24 hours.\nThe lowest substance concentration in each case at which no visible bacterial growth occurred any more is defined as the MIC and is reported in μg/ml."}}}
{"smiles": "NC[C@H](O)C[C@@H]1NC(=O)[C@@H](N)Cc2cc(ccc2O)-c2ccc(O)c(c2)C[C@@H](C(=O)O)NC1=O", "note": "[Biphenomycin B, biphenomycin B, reference compound]", "values": [{"measurement": "resistance rate", "setting": "S. aureus RN4220", "value": "1×10^5"}, {"measurement": "MIC S. aureus 133", "setting": "S. aureus 133", "value": "<0.03", "unit": "µg/mL"}]}
